Assays:
Magnaporthe grisea = format: cell-based; details: 100 ppm
eggs of Panonychus citri = assay: Effect on hatching of eggs of Panonychus citri, leaf disc method; format: in vivo; details: Panonychus citri eggs, 1 ppm, listed as 1-(S, R)
Method: (§1) • (1) Preparation of leaf discs containing eggs: 20 female adult mites of Tetranychus cinnabarinus were transferred onto leaf discs of Vicia faba with a diameter of 2.0 cm (with wetted filter paper at the bottom), then covered it with a lidded culture dish and cultivated under moisturizing conditions, the adult mites were removed within 36 hours and microscopic examination and counting were performed on leaf discs containing eggs. • (2) Investigation of egg population base: Before pesticide soaking, a microscopic examination was conducted on the egg basic number of each leaf disc, with 2 replicates set for each treatment. • (3) Pesticide soaking treatment: The leaf butterflies loaded with mite eggs were soaked in clear water and sulfite compounds for 10 seconds, respectively, then taken out and cultivated under moisturizing conditions. Each treatment should be repeated for no less than 3 times. • (4) Cultivation and observation: The […] were cultivated under normal conditions. Five days after insecticide delivery, the hatching status of mite eggs was investigated. • Note: The temperature and humidity conditions of the constant temperature and humidity incubator after the treatment should be controlled so as to avoid excessive temperature differences, which may cause generation and dripping of condensate water in the culture dish, resulting in abnormal death of eggs due to soaking in water; it is also necessary to ensure sufficient strong ambient light, without directing irradiating the leaves. • (5) Survey of Results: The experimental materials of each treatment group were regularly hydrated and moisturized, and the hatching of eggs was observed. On the 7th day after insecticide delivery, the number of hatched eggs for each treatment was recorded, and the survey of results was recorded in the original notebook. According to the experimental requirements and characteristics of agents, the survey time can be shortened or extended.
(§2) • 1) Surveying and recording the number of hatched eggs for each treatment. • 2) Photographing and recording whether there was any pesticide damage to the leaf discs of Vicia faba. • 3) Recording the developmental status of experimental mite eggs, behavior status of nymph mites, including abnormal phenomena such as delayed or stopped development of mite eggs, difficulty in breaking hull for nymph mites, or painful struggles after hatching, etc. • (6) Calculation method: Based on the survey data, the prevention and control effect of each treatment was calculated according to the following formula, and the calculation results were kept to two decimal places.
This test adopted the method in Test Example 1 of technical section, mainly used leaf disc method to explore the effect on hatching of eggs of Panonychus citri by compounds 1-(S,S), 1-(S,R), 1-(R,R), 1-(R,S), 1′-(S,S), 1′-(S,R), 1′-(R,R), 1′-(R,S), compound 1, compound 1′, S-10, R-10, S-10′, R-10′, compound 10, compound 10′, compound 19-(S,S), 19-(S,R), 19-(R,R), 19-(R,S), 19′-(S,S), 19′-(S,R), 19′-(R,R), 19′-(R,S), compound 19, and compound 19′. The concentration of all compounds was 1 ppm.

[1] = tested on: eggs of Harmonia axyridis; assay: Effect on hatching of eggs of Harmonia axyridis, egg card immersion; format: in vivo; details: 100 ppm, listed as 1-(S, R)
Source text: The eggs of Harmonia axyridis cards (with approximately 20 eggs per card) were purchased from Henan Jiyuan Baiyun Industry Co., Ltd. in Henan Province. The number of eggs on the egg cards was counted as the basic number before insecticide delivery, and 5 cards were used as one treatment, with 3 replicates per treatment. After immersing the egg cards in a 100 ppm insecticide solution for 30 seconds, they were taken out and air dried, then cultivated under moisturizing conditions, and the […] were cultivated at 27° C. 4 days after insecticide delivery, the hatching status of eggs of Harmonia axyridis was investigated, and the prevention and control effect was calculated according to the following formula. [formula] [formula]

eggs of Aleyrodidae = assay: Effect on hatching of eggs of Aleyrodidae, leaf disc method; format: in vivo; details: Aleyrodidae eggs, 10 ppm, listed as 1-(S, R)
Method: as §1, §2
This test adopted the method in Test Example 1 of technical section, mainly used leaf disc method to explore the inhibitory effect on hatching of eggs of Aleyrodidae by compounds 1-(S,S), 1-(S,R), 1-(R,R), 1-(R,S), 1′-(S,S), 1′-(S,R), 1′-(R,R), 1′-(R,S), compound 1, compound 1′, S-10, R-10, S-10′, R-10′, compound 10, compound 10′, compound 19-(S,S), 19-(S,R), 19-(R,R), 19-(R,S), 19′-(S,S), 19′-(S,R), 19′-(R,R), 19′-(R,S), compound 19, and compound 19′. The concentration of all compounds was 10 ppm.

[2] = tested on: eggs of Spodoptera litura; assay: Effect on hatching of eggs of Spodoptera litura, egg piece soaking; format: in vivo; details: Spodoptera litura eggs, 500 ppm, listed as 1-(S, R)
Method: • (1) Preparation of paper containing eggs: the egg mass was cut into small pieces, each containing about 60 eggs, soaked in a preformulated test agent for 10 minutes together with paper for egg raising (concentration of each compound of 500 ppm). After taken out, absorbent paper was used to absorb the excess solution adhered to the paper for egg raising and egg pieces. (2) Cultivation: Each egg piece was separately placed in a glass test tube (5.0 cm in height, 2.5 cm in diameter, the same below), which was sealed with plastic paper punctured with fine holes using insect needles and cultivated in an artificial climate chamber at a temperature of (24±1° C.), a relative humidity of (80±10) %, and a photoperiod of L:D=12:12. When the eggs developed until they were about to hatch, castor leaves with a diameter of about 3 cm were added for feeding the hatching larvae; • (3) Observation: the number of hatched and unhatched eggs per egg piece was checked and recorded, and the hatching rate of eggs was calculated according to the formula. Each treatment was repeated for 3 times. • (4) Survey of results: The experimental materials of each treatment group were regularly hydrated and moisturized, and the hatching of eggs was observed. On the 4th day after insecticide delivery, the number of hatched eggs for each treatment was recorded, and the survey of results was recorded in the original notebook. According to the experimental requirements and characteristics of agents, the survey time can be shortened or extended. • 1) Surveying and recording the number of hatched eggs for each treatment. • 2) Recording the developmental status of experimental eggs of Spodoptera litura, behavior status of nymphs, including abnormal phenomena such as delayed or stopped development of eggs of Spodoptera litura, etc. • (5) Calculation method: Based on the survey data, the prevention and control effect of each treatment was calculated according to the following formula, and the calculation results were kept to two decimal places. [formula] [formula]

[3] = 5 days after delivery, replicate 1
[4] = 5 days after delivery, replicate 2
[5] = 5 days after delivery, replicate 3

## C[C@@H](COS(=O)OCCF)Oc1ccc(Cl)cc1Cl (stereo partly drawn) [1-(S,R)]
Magnaporthe grisea
  inhibitory rate against Magnaporthe grisea (in words): strong inhibitory rate
Magnaporthe grisea; 96-well plate, average of 3 replicates
  Average antifungal rate (%): 82.92%
Magnaporthe grisea; 96-well plate, replicate 1
  Antifungal rate of Magnaporthe grisea (%), Replicate 1: 87.32%
Magnaporthe grisea; 96-well plate, replicate 2
  Antifungal rate of Magnaporthe grisea (%), Replicate 2: 82.96%
Magnaporthe grisea; 96-well plate, replicate 3
  Antifungal rate of Magnaporthe grisea (%), Replicate 3: 78.48%
Eggs of Panonychus citri; [3]
  Hatching rate (%), Replicate 1: 5.83%
Eggs of Panonychus citri; [4]
  Hatching rate (%), Replicate 2: 5.75%
Eggs of Panonychus citri; [5]
  Hatching rate (%), Replicate 3: 6.06%
Eggs of Panonychus citri; leaf disc, replicate 1
  Number of hatched larvae 5 days after insecticide delivery, Replicate 1: 6
Eggs of Panonychus citri; leaf disc, replicate 2
  Number of hatched larvae 5 days after insecticide delivery, Replicate 2: 5
Eggs of Panonychus citri; leaf disc, replicate 3
  Number of hatched larvae 5 days after insecticide delivery, Replicate 3: 8
[1]; Harmonia axyridis egg cards, immersed 30 seconds, replicate 1
  Number of hatched larvae 4 days after insecticide delivery, Replicate 1: 13
[1]; Harmonia axyridis egg cards, immersed 30 seconds, replicate 2
  Number of hatched larvae 4 days after insecticide delivery, Replicate 2: 14
[1]; Harmonia axyridis egg cards, immersed 30 seconds, replicate 3
  Number of hatched larvae 4 days after insecticide delivery, Replicate 3: 14
[1]; Harmonia axyridis eggs, 4 days after delivery, replicate 1
  Hatching rate (%), Replicate 1: 12.04%
[1]; Harmonia axyridis eggs, 4 days after delivery, replicate 2
  Hatching rate (%), Replicate 2: 14.14%
[1]; Harmonia axyridis eggs, 4 days after delivery, replicate 3
  Hatching rate (%), Replicate 3: 13.73%
Eggs of Aleyrodidae; [3]
  Hatching rate (%), Replicate 1: 9.65%
Eggs of Aleyrodidae; [4]
  Hatching rate (%), Replicate 2: 9.38%
Eggs of Aleyrodidae; [5]
  Hatching rate (%), Replicate 3: 10.48%
Eggs of Aleyrodidae; leaf disc, replicate 1
  Number of hatched larvae 5 days after insecticide delivery, Replicate 1: 11
Eggs of Aleyrodidae; leaf disc, replicate 2
  Number of hatched larvae 5 days after insecticide delivery, Replicate 2: 12
Eggs of Aleyrodidae; leaf disc, replicate 3
  Number of hatched larvae 5 days after insecticide delivery, Replicate 3: 11
[2]; 4 days after delivery, replicate 1
  Hatching rate (%), Replicate 1: 62.30%
[2]; 4 days after delivery, replicate 2
  Hatching rate (%), Replicate 2: 63.08%
[2]; 4 days after delivery, replicate 3
  Hatching rate (%), Replicate 3: 60.34%
[2]; soaked 10 minutes, replicate 1
  Number of unhatched larvae 4 days after insecticide delivery, Replicate 1: 23
[2]; soaked 10 minutes, replicate 2
  Number of unhatched larvae 4 days after insecticide delivery, Replicate 2: 24
[2]; soaked 10 minutes, replicate 3
  Number of unhatched larvae 4 days after insecticide delivery, Replicate 3: 23

Source: patent US20260184675A1, “CHIRAL ISOMERIC SULFITE COMPOUND AND APPLICATION THEREOF” (Chengdu Hanova BioSciences Co., Ltd, priority 2024, published 2026)
